Experimental data as given in BindingDB's records for patent US12522634 (Farsight Medical Technology (Shanghai), 2026).
Starred links: 1 amine or outer side, 2 acyl side, 3 side chain; linkers in the order of their positions; H or OH if unused. Non-standard residues stand in square brackets, D forms with d. Residues, ends and D or L forms follow the SMILES beside them. MeBmt = C/C=C/C[C@@H](C)[C@@H](O)[C@H](NC)C(=O)O; X1 = CN([C@H](OCCN1CCOCC1)C(=O)[*:2])[*:1]; X2 = CN(C)CCO[C@H](C(=O)[*:2])N(C)[*:1]; NMeL = CN[C@@H](CC(C)C)C(=O)O; NMeV = CN[C@H](C(=O)O)C(C)C; Nva = CCC[C@H](N)C(=O)O

How the values were obtained:
[1] = biological target: Peptidyl-prolyl cis-trans isomerase F, mitochondrial (Human, UniProt P30405); assay: Cyclophilin Peptidyl-Prolyl Isomerase Functional Assay
Procedure: (§1) Assay buffer was cooled to 10° C. (with stirring) in a precision glass cuvette and inhibitor was added from a DMSO stock solution to afford a final concentration of <1% DMSO. A blank spectrum was obtained and then enzyme and substrate were added and the change in absorbance measured over 5 min. A first order rate was fitted to the absorbance data to obtain a rate constant (first 10 to 15 s were eliminated due to mixing). The catalytic rate was calculated from the enzymatic rate minus the background rate. The enzymatic rate constant, determined in duplicate at each inhibitor concentration, was plotted against inhibitor concentration and a non-linear fit by SigmaPlot generated a Ki.

[2] = biological target: Peptidyl-prolyl cis-trans isomerase A (Homo sapiens, UniProt P62937); assay: as above
Sequence of Peptidyl-prolyl cis-trans isomerase A (P62937 whole entry): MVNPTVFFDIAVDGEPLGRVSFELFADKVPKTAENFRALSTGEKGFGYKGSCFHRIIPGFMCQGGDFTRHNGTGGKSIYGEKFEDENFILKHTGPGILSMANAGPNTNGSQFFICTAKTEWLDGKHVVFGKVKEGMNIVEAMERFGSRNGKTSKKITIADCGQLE
Procedure: as §1

Sequence of Peptidyl-prolyl cis-trans isomerase F, mitochondrial (P30405 whole entry): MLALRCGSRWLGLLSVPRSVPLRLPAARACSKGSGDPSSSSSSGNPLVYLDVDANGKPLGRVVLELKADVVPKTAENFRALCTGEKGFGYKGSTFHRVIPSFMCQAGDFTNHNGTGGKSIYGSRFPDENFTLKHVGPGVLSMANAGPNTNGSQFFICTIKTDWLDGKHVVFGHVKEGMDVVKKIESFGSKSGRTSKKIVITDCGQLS

Row | SMILES | Ki [1] [nM] | Ki [2] [nM]
1 | C/C=C/C[C@@H](C)[C@@H](O)[C@H]1C(=O)N[C@@H](C(C)C)C(=O)N(C)[C@H](OCCN(C)C)C(=O)N(C)[C@@H](CC(C)C)C(=O)N[C@@H](C(C)C)C(=O)N(C)[C@@H](CC(C)C)C(=O)N[C@@H](C)C(=O)N[C@H](C)C(=O)N(C)[C@@H](CC(C)C)C(=O)N(C)[C@@H](CC(C)C)C(=O)N(C)[C@@H](C(C)C)C(=O)N1C [US12522634, Compound 3] (cyclo(A[dA][NMeL][NMeL][NMeV][MeBmt]V[X2][NMeL]V[NMeL])) | 5.1 | –
2 | C/C=C/C[C@@H](C)[C@@H](O)[C@H]1C(=O)N[C@@H](C(C)C)C(=O)N(C)[C@H](OCCN2CCOCC2)C(=O)N(C)[C@@H](CC(C)C)C(=O)N[C@@H](C(C)C)C(=O)N(C)[C@@H](CC(C)C)C(=O)N[C@@H](C)C(=O)N[C@H](C)C(=O)N(C)[C@@H](CC(C)C)C(=O)N(C)[C@@H](CC(C)C)C(=O)N(C)[C@@H](C(C)C)C(=O)N1C [US12522634, Compound 4] (cyclo(A[dA][NMeL][NMeL][NMeV][MeBmt]V[X1][NMeL]V[NMeL])) | 4.1 | 2.3
3 | C/C=C/C[C@@H](C)[C@@H](O)[C@H]1C(=O)N[C@@H](CCC)C(=O)N(C)[C@H](OCCN(C)C)C(=O)N(C)[C@@H](CC(C)C)C(=O)N[C@@H](C(C)C)C(=O)N(C)[C@@H](CC(C)C)C(=O)N[C@@H](C)C(=O)N[C@H](C)C(=O)N(C)[C@@H](CC(C)C)C(=O)N(C)[C@@H](CC(C)C)C(=O)N(C)[C@@H](C(C)C)C(=O)N1C [US12522634, Compound 7] (cyclo(A[dA][NMeL][NMeL][NMeV][MeBmt][Nva][X2][NMeL]V[NMeL])) | 5.9 | 9.4
4 | C/C=C/C[C@@H](C)[C@@H](O)[C@H]1C(=O)N[C@@H](CCC)C(=O)N(C)[C@H](OCCN2CCOCC2)C(=O)N(C)[C@@H](CC(C)C)C(=O)N[C@@H](C(C)C)C(=O)N(C)[C@@H](CC(C)C)C(=O)N[C@@H](C)C(=O)N[C@H](C)C(=O)N(C)[C@@H](CC(C)C)C(=O)N(C)[C@@H](CC(C)C)C(=O)N(C)[C@@H](C(C)C)C(=O)N1C [US12522634, Compound 8] (cyclo(A[dA][NMeL][NMeL][NMeV][MeBmt][Nva][X1][NMeL]V[NMeL])) | 35 | 39
